Assay results from the supplement of paper PMC13207355.

Assays:
Settings in all cases: exposure time: 72 h
FT3469 [1] = normal neural stem cell line; test: surviving fraction (nuclei count normalised to DMSO); higher = more cells surviving (less toxic)
E34 [2] = patient-derived glioblastoma stem cells of proneural subtype; test: as above
E21 [3] = patient-derived glioblastoma stem cells of mesenchymal subtype; test: as above
E28 [4] = patient-derived glioblastoma stem cells of classical subtype; test: as above
E31 [5] = patient-derived glioblastoma stem cells of proneural subtype; test: as above
E13 [6] = patient-derived glioblastoma stem cells of classical subtype; test: as above
E57 [7] = patient-derived glioblastoma stem cells of mesenchymal subtype; test: as above
FT3469 [8] = test: phenotypic distance (Euclidean, principal components) from DMSO controls (arbitrary units); higher = stronger morphological change
E34 [9] = test: as above
E21 [10] = test: as above
E28 [11] = test: as above
E31 [12] = test: as above
E13 [13] = test: as above
E57 [14] = test: as above
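Throughout, for phenotypic distance (Euclidean, principal components) from DMSO controls: cell Painting imaging in 384-well plates, CellProfiler features reduced to at least 20 principal components, Euclidean distance versus same-plate DMSO vehicle wells (0.1% v/v), median over six images per well.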
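Throughout, for surviving fraction (nuclei count normalised to DMSO): nuclei counted by high-content imaging of Hoechst-stained cells in laminin-coated 384-well plates, relative to 0.1% DMSO vehicle wells, with staurosporine as cell-death control.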

O=c1[nH]c(=O)n([C@H]2C[C@H](O)[C@@H](CO)O2)cc1I [Idoxuridine]
Settings	phenotypic distance	surviving fraction
E13 [6], 4.1 nM	–	0.99
E13 [6], 12.3 nM	–	0.847
E13 [6], 37 nM	–	0.893
E13 [6], 111.1 nM	–	0.967
E13 [6], 333.3 nM	–	0.953
E13 [6], 1000 nM	–	1.02
E13 [6], 3000 nM	–	1.06
E13 [13], 4.1 nM	1.19	–
E13 [13], 12.3 nM	1.08	–
E13 [13], 37 nM	1.53	–
E13 [13], 111.1 nM	0.919	–
E13 [13], 333.3 nM	0.742	–
E13 [13], 1000 nM	1.06	–
E13 [13], 3000 nM	0.576	–
E21 [3], 4.1 nM	–	0.958
E21 [3], 12.3 nM	–	0.967
E21 [3], 37 nM	–	1
E21 [3], 111.1 nM	–	0.893
E21 [3], 333.3 nM	–	1.01
E21 [3], 1000 nM	–	0.969
E21 [3], 3000 nM	–	0.986
E21 [10], 4.1 nM	0.811	–
E21 [10], 12.3 nM	1.68	–
E21 [10], 37 nM	1.77	–
E21 [10], 111.1 nM	0.694	–
E21 [10], 333.3 nM	1.11	–
E21 [10], 1000 nM	1.12	–
E21 [10], 3000 nM	1.56	–
E28 [4], 4.1 nM	–	1.11
E28 [4], 12.3 nM	–	0.859
E28 [4], 37 nM	–	1.06
E28 [4], 111.1 nM	–	1.12
E28 [4], 333.3 nM	–	0.97
E28 [4], 1000 nM	–	0.76
E28 [4], 3000 nM	–	0.954
E28 [11], 4.1 nM	0.822	–
E28 [11], 12.3 nM	0.591	–
E28 [11], 37 nM	0.96	–
E28 [11], 111.1 nM	0.701	–
E28 [11], 333.3 nM	0.922	–
E28 [11], 1000 nM	0.762	–
E28 [11], 3000 nM	1.1	–
E31 [5], 4.1 nM	–	0.736
E31 [5], 12.3 nM	–	1.04
E31 [5], 37 nM	–	0.782
E31 [5], 111.1 nM	–	1.15
E31 [5], 333.3 nM	–	0.725
E31 [5], 1000 nM	–	0.982
E31 [5], 3000 nM	–	0.787
E31 [12], 4.1 nM	1.23	–
E31 [12], 12.3 nM	0.821	–
E31 [12], 37 nM	0.938	–
E31 [12], 111.1 nM	0.814	–
E31 [12], 333.3 nM	0.763	–
E31 [12], 1000 nM	0.973	–
E31 [12], 3000 nM	0.756	–
E34 [2], 4.1 nM	–	0.86
E34 [2], 12.3 nM	–	1
E34 [2], 37 nM	–	1.04
E34 [2], 111.1 nM	–	0.92
E34 [2], 333.3 nM	–	1.03
E34 [2], 1000 nM	–	0.959
E34 [2], 3000 nM	–	1.01
E34 [9], 4.1 nM	0.63	–
E34 [9], 12.3 nM	0.803	–
E34 [9], 37 nM	0.845	–
E34 [9], 111.1 nM	0.69	–
E34 [9], 333.3 nM	0.689	–
E34 [9], 1000 nM	0.829	–
E34 [9], 3000 nM	1.45	–
E57 [7], 4.1 nM	–	1.04
E57 [7], 12.3 nM	–	1.02
E57 [7], 37 nM	–	0.958
E57 [7], 111.1 nM	–	0.992
E57 [7], 333.3 nM	–	1.01
E57 [7], 1000 nM	–	0.99
E57 [7], 3000 nM	–	0.867
E57 [14], 4.1 nM	0.916	–
E57 [14], 12.3 nM	0.612	–
E57 [14], 37 nM	0.986	–
E57 [14], 111.1 nM	1.62	–
E57 [14], 333.3 nM	0.906	–
E57 [14], 1000 nM	1.14	–
E57 [14], 3000 nM	1.5	–
FT3469 [1], 4.1 nM	–	0.845
FT3469 [1], 12.3 nM	–	1.33
FT3469 [1], 37 nM	–	0.987
FT3469 [1], 111.1 nM	–	0.845
FT3469 [1], 333.3 nM	–	1.18
FT3469 [1], 1000 nM	–	0.86
FT3469 [1], 3000 nM	–	1.07
FT3469 [8], 4.1 nM	0.962	–
FT3469 [8], 12.3 nM	1.15	–
FT3469 [8], 37 nM	0.953	–
FT3469 [8], 111.1 nM	0.541	–
FT3469 [8], 333.3 nM	1.76	–
FT3469 [8], 1000 nM	0.62	–
FT3469 [8], 3000 nM	0.72	–
